Measurements from ChEMBL document CHEMBL1155108, “SAR, pharmacokinetics, safety, and efficacy of glucokinase activating 2-(4-sulfonylphenyl)-N-thiazol-2-ylacetamides: discovery of PSN-GK1” (J Med Chem, 2008).
Values after ≈ are worked out from the molar mass of the structure shown. Active and inactive are the calls of the source. The rule behind the calls is not given here.

Legend:
Hexokinase-4 = target: T1, Hexokinase-4 (Homo sapiens, UniProt P35557); experiment: Activation of GST fused human liver glucokinase assessed as generation of NADPH by G6PDH coupled assay
T1 sequence (P35557 whole entry): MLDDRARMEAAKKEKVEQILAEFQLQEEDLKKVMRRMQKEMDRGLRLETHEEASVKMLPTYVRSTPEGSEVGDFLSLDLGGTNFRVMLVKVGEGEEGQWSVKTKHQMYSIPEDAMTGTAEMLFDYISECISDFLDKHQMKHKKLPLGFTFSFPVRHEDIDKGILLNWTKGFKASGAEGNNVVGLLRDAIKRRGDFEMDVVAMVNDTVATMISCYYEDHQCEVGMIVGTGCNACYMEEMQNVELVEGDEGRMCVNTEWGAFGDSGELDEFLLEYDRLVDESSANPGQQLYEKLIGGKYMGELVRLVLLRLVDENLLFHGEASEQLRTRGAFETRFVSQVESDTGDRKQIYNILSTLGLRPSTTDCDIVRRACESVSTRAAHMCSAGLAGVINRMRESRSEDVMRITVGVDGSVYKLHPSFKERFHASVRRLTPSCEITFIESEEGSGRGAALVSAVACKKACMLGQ

[1] = Half life in Sprague-Dawley rat at 5 mg/10 mL/kg, po in 10% aqueous gelucire 44/14; assay type: ADME, organism-based; details: in vivo, 5 mg/kg
[2] = Cmax in Sprague-Dawley rat at 5 mg/10 mL/kg, po in 10% aqueous gelucire 44/14; assay type: ADME, organism-based; details: in vivo, 5 mg/kg
[3] = Volume of distribution at steady state in Sprague-Dawley rat at 1 mg/5 mL/kg, iv in 40% DMSO; assay type: ADME, organism-based; details: in vivo, 1 mg/kg, read-out: Vdss
[4] = AUC (0 to 24 hrs) in Sprague-Dawley rat at 250 mg/kg, po; assay type: ADME, organism-based; set-up: time < 24 hr, dose 250 mg/kg, route oral; details: plasma
[5] = Clearance in Sprague-Dawley rat at 1 mg/5 mL/kg, iv in 40% DMSO; assay type: ADME, organism-based; details: in vivo, 1 mg/kg
[6] = AUC (0 to infinity) in Sprague-Dawley rat at 1 mg/5 mL/kg, iv in 40% DMSO; assay type: ADME, organism-based; set-up: dose 5 mL/kg, time infinity, route intravenous; details: plasma, 1 mg/kg
[7] = Aqueous solubility at pH 6.5 buffer; assay type: physicochemical
[8] = AUC (0 to infinity) in Sprague-Dawley rat at 5 mg/10 mL/kg, po in 10% aqueous gelucire 44/14; assay type: ADME, organism-based; set-up: dose 10 mL/kg, time infinity, route oral; details: plasma, 5 mg/kg
[9] = Half life in Sprague-Dawley rat at 1 mg/5 mL/kg, iv in 40% DMSO; assay type: ADME, organism-based; details: in vivo, 1 mg/kg
Rattus norvegicus [10] = experiment: Reduction in blood glucose level in fasted Sprague-Dawley rat at 10 mg/kg, po for 360 mins; assay type: functional, organism-based; set-up: dose 10 mg/kg
[11] = Cmax in Sprague-Dawley rat at 250 mg/kg, po; assay type: ADME, organism-based; set-up: dose 250 mg/kg, route oral; details: in vivo
[12] = Oral bioavailability in Sprague-Dawley rat at 5 mg/10 mL/kg in 10% aqueous gelucire 44/14; assay type: ADME, organism-based; details: in vivo, 5 mg/kg
[13] = Plasma concentration in C57B1/6 mouse at 10 mg/kg, po after 0.5 hrs; assay type: ADME, organism-based; set-up: dose 10 mg/kg, route oral
Rattus norvegicus [14] = experiment: Toxicity in Sprague-Dawley rat at 250 mg/kg, po; assay type: organism-based; set-up: dose 250 mg/kg, route oral; details: in vivo
[15] = Tmax in Sprague-Dawley rat at 5 mg/10 mL/kg, po in 10% aqueous gelucire 44/14; assay type: ADME, organism-based; details: in vivo, 5 mg/kg
[16] = Metabolic stability in mouse liver microsomes; assay type: ADME, Microsome
Rattus norvegicus [17] = experiment: Acute toxicity in rat at >=100 mg/kg, po; assay type: organism-based; details: in vivo
[18] = Plasma concentration in C57B1/6 mouse at 5 mg/kg, po after 0.5 hrs; assay type: ADME, organism-based; set-up: dose 5 mg/kg, route oral

| Structure (SMILES) | EC50 (Hexokinase-4) [µM] | solubility [7] [µg/mL] | concentration at 0.5 h [13] [ng/mL] | half-life [16] [h] | also measured |
| --- | --- | --- | --- | --- | --- |
| O=C(Nc1nccs1)/C(=C/c1cccs1)c1ccccc1 | 10.8 |  |  |  |  |
| O=C(Nc1ncc(F)s1)[C@H](CC1CCOCC1)c1ccc(S(=O)(=O)C2CC2)cc1 |  | 58 (≈ 132 µM) | 5010 | 1.5 | half-life [1]: 3.4 h; Cmax [2]: 1130 ng/mL; Vd [3]: 2.1 L/kg; AUC(0-t) at 24 h [4]: 898000 ng·h/mL; clearance [5]: 10 mL/min/kg; AUC(0-inf) [6]: 1660 ng·h/mL; AUC(0-inf) [8]: 10700 ng·h/mL; half-life [9]: 3.2 h; Activity (Rattus norvegicus [10]): Active; Cmax [11]: 49200 ng/mL; bioavailability [12]: 129%; Activity (Rattus norvegicus [14]): Non-toxic; Tmax [15]: 1 h |
| CS(=O)(=O)c1ccc([C@@H](CC2CCOCC2)C(=O)Nc2ncc(F)s2)cc1 | 1.43 | 298 (≈ 722 µM) | 8280 | 2.08 |  |
| O=C(Nc1cnccn1)/C(=C/c1cccs1)c1ccccc1 | 26 |  |  |  |  |
| CS(=O)(=O)c1ccc([C@@H](CC2CCOCC2)C(=O)Nc2nccs2)cc1 | 3.47 | 410 (≈ 1040 µM) | 5150 | > 3.33 | Activity (Rattus norvegicus [17]): Toxic |
| CS(=O)(=O)c1ccc(/C(=C\C2CCOCC2)C(=O)Nc2nccs2)cc1 | 2.3 | 13 (≈ 33.1 µM) | 3680 | > 3.33 |  |
| CS(=O)(=O)c1ccc([C@H](CC2CCOCC2)C(=O)Nc2nccs2)cc1 | > 10 |  |  |  |  |
| Cc1cnc(NC(=O)[C@H](CC2CCOCC2)c2ccc(S(=O)(=O)C3CC3)cc2)s1 | 0.58 | 40 (≈ 92 µM) | 1640 | 0.883 |  |
| O=C(Nc1ncc(F)s1)[C@H](CC1CCOCC1)c1ccc(S(=O)(=O)C2CCCC2)cc1 | 0.07 | 24 (≈ 51.4 µM) | 168 | 0.267 |  |
| O=C(Nc1ncc(F)s1)[C@H](CC1CCOCC1)c1ccc(S(=O)(=O)C2CCC2)cc1 | 0.14 | 60 (≈ 133 µM) |  | 0.45 | concentration at 0.5 h [18]: 1180 ng/mL |
| CS(=O)(=O)c1ccc(C(CC2CCOCC2)C(=O)Nc2nccs2)cc1 (stereo not drawn) | 8.93 | 97 (≈ 246 µM) |  | > 3.33 |  |
| CS(=O)(=O)c1ccc(C(=Cc2cccs2)C(=O)Nc2nccs2)cc1 | 0.56 |  |  |  |  |
| O=C(Nc1nccs1)[C@H](CC1CCOCC1)c1ccc(S(=O)(=O)C2CC2)cc1 | 0.57 | 147 (≈ 350 µM) | 1860 | 2.4 | Activity (Rattus norvegicus [17]): Toxic |
